According to article PMC7531004, “Discovery of gramicidin A analogues with altered activities by multidimensional screening of a one-bead-one-compound library” (Nature Communications, 2020):
Where a SMILES comes first, the peptide text is derived from it. [ ]: non-standard residue; d: D form. The star is where a group is joined. NHCH2CH2OH = OCCN*; For = O=C*

Experiments:
[1] = H+/Na+ transport assay of bead-derived peptides (one-point); type: biochemical; parameters: key: relative activity; mean of two control wells = 1.00; details: bead-derived peptide solution, EYPC/EYPG LUVs;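 further: relative to parent gramicidin A activity set to 1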
Summary of the method: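 H+/Na+ transport is monitored through pyranine fluorescence in freshly extruded LUVs after a 30-min room-temperature vortex with each library peptide at a single concentration. Signals are normalized to detergent (Triton X-100) and untreated controls.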

[2] = system: P388 mouse leukemia cells; details: 92 h
Summary of the method: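 Peptide stocks diluted 250× in growth medium; P388 cells 1 × 10^4 cells/mL final; 37 °C, 5% CO2, 92 h. WST-1 + 1-methoxy PMS, 4 h, A415. Output: % viability.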

[3] = system: Streptococcus pyogenes SSI-9; test: Antibacterial activity assay of bead-derived peptides (three concentrations); type: cell-based; parameters: key: +++: inhibition by the 640-fold diluted peptide solution; ++: inhibition by the 160-fold diluted solution; +: inhibition by the 40-fold diluted solution; -: no inhibition; details: S. pyogenes, bead-derived peptide solution, three concentrations
Summary of the method: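 Growth inhibition scored visually as precipitated bacteria after 37 °C, 18 h incubation. Streptococcus pyogenes SSI-9 inoculum of 2 × 10^5 CFU in Ca2+/Mg2+-adjusted Mueller Hinton broth plus 5% laked horse blood; peptides tested at three levels: stock, 4-fold and 16-fold DMSO dilutions.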

Compound | H+/Na+ transport activity normalized against the value of 1 (1.00) [1] | cell viability/% [2] | antibacterial activity [3]
CNC(=O)C[C@@H](NC(=O)[C@@H](NC(=O)[C@H](NC(=O)[C@H](C)NC(=O)[C@@H](CC(C)C)NC(=O)[C@H](C)NC(=O)CNC(=O)[C@@H](NC=O)C(C)C)C(C)C)C(C)C)C(=O)N[C@@H](Cc1c[nH]c2ccccc12)C(=O)N[C@@H](C(=O)N[C@@H](Cc1c[nH]c2ccccc12)C(=O)N[C@@H](C(=O)N[C@@H](Cc1c[nH]c2ccccc12)C(=O)N[C@H](CC(C)C)C(=O)N[C@@H](Cc1c[nH]c2ccccc12)C(=O)NCCO)C(C)C)C(C)C [compound 12636] (For-VGA[dL]A[dV]V[dD](NHMe)W[dV]W[dV]W[dL]W-NHCH2CH2OH) | 1.21 | 100.0% | -
CC(C)C[C@@H](NC(=O)[C@H](C)NC(=O)CNC(=O)[C@@H](NC=O)C(C)C)C(=O)N[C@@H](C)C(=O)N[C@@H](C(=O)N[C@H](C(=O)N[C@H](CC(C)C)C(=O)N[C@@H](Cc1c[nH]c2ccccc12)C(=O)N[C@@H](C(=O)N[C@@H](Cc1c[nH]c2ccccc12)C(=O)N[C@H](CC(C)C)C(=O)N[C@@H](Cc1c[nH]c2ccccc12)C(=O)N[C@@H](C(=O)N[C@@H](Cc1c[nH]c2ccccc12)C(=O)NCCO)C(C)C)C(C)C)C(C)C)C(C)C [compound 4895] (For-VGA[dL]A[dV]V[dL]W[dV]W[dL]W[dV]W-NHCH2CH2OH) | 1.16 | 48.2% | +
CC(C)C[C@@H](NC(=O)[C@H](C)NC(=O)CNC(=O)[C@@H](NC=O)C(C)C)C(=O)N[C@@H](C)C(=O)N[C@@H](C(=O)N[C@H](C(=O)N[C@@H](C(=O)N[C@@H](Cc1c[nH]c2ccccc12)C(=O)N[C@H](CC(C)C)C(=O)N[C@@H](Cc1c[nH]c2ccccc12)C(=O)N[C@H](CC(C)C)C(=O)N[C@@H](Cc1c[nH]c2ccccc12)C(=O)N[C@H](CC(C)C)C(=O)N[C@@H](Cc1c[nH]c2ccccc12)C(=O)NCCO)C(C)C)C(C)C)C(C)C [compound 6292] (For-VGA[dL]A[dV]V[dV]W[dL]W[dL]W[dL]W-NHCH2CH2OH) | 1.25 | 5.4% | ++
CC(C)C[C@@H](NC(=O)[C@H](C)NC(=O)CNC(=O)[C@@H](NC=O)C(C)C)C(=O)N[C@@H](C)C(=O)N[C@H](CC(C)C)C(=O)N[C@H](C(=O)N[C@H](CC(C)C)C(=O)N[C@@H](Cc1c[nH]c2ccccc12)C(=O)N[C@@H](C(=O)N[C@@H](Cc1c[nH]c2ccccc12)C(=O)N[C@H](CC(C)C)C(=O)N[C@@H](Cc1c[nH]c2ccccc12)C(=O)N[C@@H](C(=O)N[C@@H](Cc1c[nH]c2ccccc12)C(=O)NCCO)C(C)C)C(C)C)C(C)C [compound 1751] (For-VGA[dL]A[dL]V[dL]W[dV]W[dL]W[dV]W-NHCH2CH2OH) | 1.05 | 0.0% | -
CC(C)C[C@@H](NC(=O)[C@H](C)NC(=O)[C@H](NC(=O)[C@H](C)NC(=O)CNC(=O)[C@@H](NC=O)C(C)C)C(C)C)C(=O)N[C@H](C(=O)N[C@H](CC(C)C)C(=O)N[C@@H](Cc1c[nH]c2ccccc12)C(=O)N[C@@H](C(=O)N[C@@H](Cc1c[nH]c2ccccc12)C(=O)N[C@@H](C(=O)N[C@@H](Cc1c[nH]c2ccccc12)C(=O)N[C@@H](C(=O)N[C@@H](Cc1c[nH]c2ccccc12)C(=O)NCCO)C(C)C)C(C)C)C(C)C)C(C)C [compound 4477] (For-VGA[dV]A[dL]V[dL]W[dV]W[dV]W[dV]W-NHCH2CH2OH) | 1.38 | 6.3% | +
CC(C)C[C@@H](NC(=O)[C@H](C)NC(=O)CNC(=O)[C@@H](NC=O)C(C)C)C(=O)N[C@@H](C)C(=O)N[C@H](CC(C)C)C(=O)N[C@H](C(=O)N[C@@H](C(=O)N[C@@H](Cc1c[nH]c2ccccc12)C(=O)N[C@@H](C(=O)N[C@@H](Cc1c[nH]c2ccccc12)C(=O)N[C@@H](C(=O)N[C@@H](Cc1c[nH]c2ccccc12)C(=O)N[C@@H](C(=O)N[C@@H](Cc1c[nH]c2ccccc12)C(=O)NCCO)C(C)C)C(C)C)C(C)C)C(C)C)C(C)C [compound 13128] (For-VGA[dL]A[dL]V[dV]W[dV]W[dV]W[dV]W-NHCH2CH2OH) | 1.24 | 100.0% | +
CNC(=O)C[C@@H](NC(=O)[C@@H](NC(=O)[C@H](NC(=O)[C@H](C)NC(=O)[C@H](NC(=O)[C@H](C)NC(=O)CNC(=O)[C@@H](NC=O)C(C)C)C(C)C)C(C)C)C(C)C)C(=O)N[C@@H](Cc1c[nH]c2ccccc12)C(=O)N[C@H](CC(C)C)C(=O)N[C@@H](Cc1c[nH]c2ccccc12)C(=O)N[C@@H](C(=O)N[C@@H](Cc1c[nH]c2ccccc12)C(=O)N[C@@H](C(=O)N[C@@H](Cc1c[nH]c2ccccc12)C(=O)NCCO)C(C)C)C(C)C [compound 8057] (For-VGA[dV]A[dV]V[dD](NHMe)W[dL]W[dV]W[dV]W-NHCH2CH2OH) | 1.13 | 100.0% | -
CNC(=O)C[C@@H](NC(=O)[C@@H](NC(=O)[C@@H](CC(C)C)NC(=O)[C@H](C)NC(=O)[C@@H](CC(C)C)NC(=O)[C@H](C)NC(=O)CNC(=O)[C@@H](NC=O)C(C)C)C(C)C)C(=O)N[C@@H](Cc1c[nH]c2ccccc12)C(=O)N[C@H](CC(C)C)C(=O)N[C@@H](Cc1c[nH]c2ccccc12)C(=O)N[C@H](CC(C)C)C(=O)N[C@@H](Cc1c[nH]c2ccccc12)C(=O)N[C@@H](C(=O)N[C@@H](Cc1c[nH]c2ccccc12)C(=O)NCCO)C(C)C [compound 6851] (For-VGA[dL]A[dL]V[dD](NHMe)W[dL]W[dL]W[dV]W-NHCH2CH2OH) | 1.16 | 100.0% | -
CNC(=O)C[C@@H](NC(=O)[C@@H](NC(=O)[C@@H](CC(C)C)NC(=O)[C@H](C)NC(=O)[C@H](NC(=O)[C@H](C)NC(=O)CNC(=O)[C@@H](NC=O)C(C)C)C(C)C)C(C)C)C(=O)N[C@@H](Cc1c[nH]c2ccccc12)C(=O)N[C@H](CC(C)C)C(=O)N[C@@H](Cc1c[nH]c2ccccc12)C(=O)N[C@H](CC(C)C)C(=O)N[C@@H](Cc1c[nH]c2ccccc12)C(=O)N[C@@H](C(=O)N[C@@H](Cc1c[nH]c2ccccc12)C(=O)NCCO)C(C)C [compound 3800] (For-VGA[dV]A[dL]V[dD](NHMe)W[dL]W[dL]W[dV]W-NHCH2CH2OH) | 1.23 | 100.0% | -
CC(C)C[C@@H](NC(=O)[C@H](C)NC(=O)[C@H](NC(=O)[C@H](C)NC(=O)CNC(=O)[C@@H](NC=O)C(C)C)C(C)C)C(=O)N[C@H](C(=O)N[C@@H](C(=O)N[C@@H](Cc1c[nH]c2ccccc12)C(=O)N[C@@H](C(=O)N[C@@H](Cc1c[nH]c2ccccc12)C(=O)N[C@H](CC(C)C)C(=O)N[C@@H](Cc1c[nH]c2ccccc12)C(=O)N[C@H](CC(C)C)C(=O)N[C@@H](Cc1c[nH]c2ccccc12)C(=O)NCCO)C(C)C)[C@H](C)O)C(C)C [compound 11433] (For-VGA[dV]A[dL]V[dT]W[dV]W[dL]W[dL]W-NHCH2CH2OH) | 1.38 | 51.1% | -
CC(C)C[C@@H](NC(=O)[C@H](C)NC(=O)CNC(=O)[C@@H](NC=O)C(C)C)C(=O)N[C@@H](C)C(=O)N[C@@H](C(=O)N[C@H](C(=O)N[C@H](CC(C)C)C(=O)N[C@@H](Cc1c[nH]c2ccccc12)C(=O)N[C@H](CC(C)C)C(=O)N[C@@H](Cc1c[nH]c2ccccc12)C(=O)N[C@@H](C(=O)N[C@@H](Cc1c[nH]c2ccccc12)C(=O)N[C@H](CC(C)C)C(=O)N[C@@H](Cc1c[nH]c2ccccc12)C(=O)NCCO)C(C)C)C(C)C)C(C)C [compound 13252] (For-VGA[dL]A[dV]V[dL]W[dL]W[dV]W[dL]W-NHCH2CH2OH) | 1.14 | 2.6% | -
CC(C)C[C@@H](NC(=O)[C@H](C)NC(=O)CNC(=O)[C@@H](NC=O)C(C)C)C(=O)N[C@@H](C)C(=O)N[C@@H](C(=O)N[C@H](C(=O)N[C@@H](C(=O)N[C@@H](Cc1c[nH]c2ccccc12)C(=O)N[C@@H](C(=O)N[C@@H](Cc1c[nH]c2ccccc12)C(=O)N[C@H](CC(C)C)C(=O)N[C@@H](Cc1c[nH]c2ccccc12)C(=O)N[C@@H](C(=O)N[C@@H](Cc1c[nH]c2ccccc12)C(=O)NCCO)C(C)C)C(C)C)C(C)C)C(C)C)C(C)C [compound 4884] (For-VGA[dL]A[dV]V[dV]W[dV]W[dL]W[dV]W-NHCH2CH2OH) | 1.27 | 49.1% | ++
CC(C)C[C@@H](NC(=O)[C@H](C)NC(=O)[C@H](NC(=O)[C@H](C)NC(=O)CNC(=O)[C@@H](NC=O)C(C)C)[C@H](C)O)C(=O)N[C@H](C(=O)N[C@H](CC(C)C)C(=O)N[C@@H](Cc1c[nH]c2ccccc12)C(=O)N[C@H](CC(C)C)C(=O)N[C@@H](Cc1c[nH]c2ccccc12)C(=O)N[C@@H](C(=O)N[C@@H](Cc1c[nH]c2ccccc12)C(=O)N[C@@H](C(=O)N[C@@H](Cc1c[nH]c2ccccc12)C(=O)NCCO)C(C)C)C(C)C)C(C)C [compound 569] (For-VGA[dT]A[dL]V[dL]W[dL]W[dV]W[dV]W-NHCH2CH2OH) | 1.01 | 100.0% | -
